SMILES strings stand for the structures. Entries after “also recorded” stand apart in the source; their conditions may differ.

Holding throughout (type): in vivo, rat
The test system of one assay is Male Wistar rats. As to the kind of experiment: Social interaction test after oxytocin pre-treatment (Example 3). The procedure: Male Wistar rats (n=48) were obtained from the Animal Resource Centre (ARC), Perth, Western Australia, Australia. The animals were of early adolescent age (i.e., 21 days-old) on arrival and were young adults (i.e., 33 days-old) when oxytocin therapy commenced. The animals were housed and maintained as described in the preceding examples, except that animals were moved to individual housing during chronic exposure to alcohol.
One-half of the rats (n=24) were administered 10 injections of 1 mg/kg oxytocin (1×I/P injection per day for a total of 10 days). The other half of the rats (n=24) received equivalent injections of placebo/vehicle lacking oxytocin.
At 7 days following final injection of oxytocin, all rats were tested in an emergence test of anxiety. This 5 min test measures the willingness of rats to leave a small dark hide box and emerge into a brightly lit open field. Rats normally avoid brightly lit and open spaces. Three days later, the animals were tested in social interaction tests which measure the willingness of rats to engage in social behavior during a 10 min session in a darkened arena where they meet an unknown rat that has received the same drug treatment.

The test system of another assay is P rats. As to the kind of experiment: Lickometer choice of Vodka Cruiser versus 3% sucrose after acute oxytocin in alcohol-exposed P rats (Example 1). The source says: P rats (8 female and 8 male P rats) were provided by Professor Andrew Lawrence at the Howard Florey Institute, Melbourne, Australia. The animals were of adolescent age (i.e., 28 days-old) on arrival at the animal house. Animals were housed in same-sex cages at a density of 3-4 rats per cage. Over the following 2 months, animals received intermittent exposure to various alcoholic beverages in their home cages e.g., white wine, red wine, beer, Vodka Cruiser, Bacardi Breezer, but were alcohol-free for the month preceding testing.
Testing occurred in a lickometer apparatus. Rats were placed in a small metal cage where they have a choice of two tubes for supply of liquids, wherein the tube were designed such that every third lick at one tube delivered a small drop (0.07 ml) of 3% (w/v) sucrose solution, and every third lick at the other tube delivered a small amount of alcohol-containing beverage, in particular Vodka Cruiser (Raspberry Flavor), containing 5.0% (w/v) ethanol. Rats were exposed daily to 70 min sessions in the lickometer until their intake of sucrose and/or alcohol and preferences for these beverages had stabilized.
One-half of the rats being tested were injected intra-peritoneally (I/P) with a single dosage of 0.3 mg/kg oxytocin, administered 10 min before their daily drinking session. The following day, these animals received a normal baseline test session with no further oxytocin dosing. The following day, one-half of the animals were administered I/P with 1 mg/kg oxytocin 10 min before the test session. Normal drinking sessions then continued for a further 4 days. During the same period, the other one-half of the rats were administered a placebo (vehicle) lacking oxytocin. Animals receiving the placebo were treated with oxytocin in exactly the same sequence as the treatment group, commencing one week after the start of testing. A final test to determine alcohol intake and alcohol preference was conducted after 55 days, to determine whether or not oxytocin induced lasting changes in drinking behavior.

Assay [1] relates to rats having established patterns of pathologically-high alcohol consumption. As to the kind of experiment: Beer and water consumption in the 2.5 hr after a single oxytocin injection in alcohol-dependent animals (Example 4, FIG. 8). As to conditions: 2.5 hr following 1 mg/kg IP. The procedure: FIG. 8 provides graphical representations showing total consumption (ml) of full strength beer (panel A) and water (panel B) in rats having established patterns of pathologically-high alcohol consumption over several months, in a 2.5 hr period following intraperitoneal (IP) injection with 1 mg/kg oxytocin (OXY, n=8) or saline vehicle (VEH, n=8). […] Alcohol consumption in animals treated with oxytocin was reduced in the short-term by about 25% to about 40% or about 50% or about 60%. In contrast, consumption of water was unchanged in animals receiving oxytocin or saline vehicle placebo.
Alcohol-dependent animals were provided a single injection i/p of oxytocin (1 mg/kg body weight) and their alcohol consumption levels in the 2.5 hr period following therapy were determined.

The mark [2] stands for this setting: 10 minute social interaction test, versus vehicle.
Where [3] appears, read: acute oxytocin 0.3 and 1 mg/kg I/P, 10 min before 70 min session.

Regarding `CC[C@H](C)[C@@H]1NC(=O)[C@H](Cc2ccc(O)cc2)NC(=O)[C@@H](N)CSSC[C@@H](C(=O)N2CCC[C@H]2C(=O)N[C@@H](CC(C)C)C(=O)NCC(N)=O)NC(=O)[C@H](CC(N)=O)NC(=O)[C@H](CCC(N)=O)NC1=O` [oxytocin], in the assay with Male Wistar rats (setting [2]), the “number of social contacts” value is on record as “significantly higher numbers of social contacts; also recorded: increased numbers of social contacts”; the “proximal time (time within one and half body lengths of another rat)” value is recorded as “significantly higher; also recorded: increased time spent in close proximity”. Moreover, the social anxiety entry with Male Wistar rats (test animals after oxytocin therapy) is recorded as “decreased social anxiety”. Further, in the assay on P rats (P rats, after 1 mg/kg oxytocin), the “duration of the reduction in alcohol preference and alcohol intake” value is recorded as 7-8 weeks. Further, in the assay with P rats (setting [3]), the “intake of Vodka Cruiser (alcohol consumption)” value is listed as “significant reduction; also recorded: reduced their alcohol consumption significantly” and the “intake of sucrose solution” value is on record as “significant reduction”. Also, the “time intake of the alcoholic beverage remained suppressed” value in the assay with P rats (following oxytocin) is “at least 55 days”. The “reduction of baseline alcohol intake” value in the assay on P rats (male and female P rats, 2 days following treatment, FIG. 1) is recorded as “about 50%”. Also, the “reduction in alcohol consumption, comparison between the sexes” value in the assay on P rats (male versus female P rats) was “comparable between the sexes”. For the same molecule, in the assay with P rats (treated male and female P rats), the “preference for alcohol (Vodka Cruiser versus 3% sucrose)” value is recorded as “shift towards a preference for alcohol-free solution; also recorded: reduced preference for alcohol”. The consumption of water result in assay [1] is “unchanged; also recorded: not affected”. Moreover, the “beer (alcohol) consumption” value in assay [1] (versus saline vehicle) is given as “significantly reduced beer consumption”.

The values are drawn from patent US9119805B2, “Therapy and prevention of problem drinking” (THE UNIVERSITY OF SYDNEY, priority 2009, dated 2015).
